According to patent US8932597B2 (priority 2008, dated 2015):

Key:
HuM2e antibody 23K12 = format: binding, human
[1] = tested on: anti-M2 human monoclonal antibody Z3G1; format: binding

Substance | Signal (peptides that bind to 23K21 and 8I10) (HuM2e antibody 23K12) | Signal (peptides that show specific binding to Z3G1) [1] | Signal (peptides that bind to Z3G1) [1]
312 (TLLTEVETPIRNEWGCRCNDSSD; epitope peptide) [compound 312] | 1855 | 2510 | –
453 (SLLTEVETPIRNEAGCRCNDSSD; epitope peptide) [compound 453] | 1311 | 2383 | –
365 (CSLLTEVCMSLLTEC; epitope peptide) [compound 365] | 1498 | – | 1891
301 (SLLCEVGCSLLTEC; epitope sequence) [compound 301] | 1959 | 2637 | –
714 (SLLTEVETPIRNEWCCRCNDSSD; epitope peptide) [compound 714] | 704 | 2388 | –
491 (SLLTEVETLIRNEWGCRCNDSSD; epitope peptide) [compound 491] | 1109 | 2225 | –
476 (CSLLTEVGCSCLCEV; epitope peptide) [compound 476] | 1206 | – | 1680
320 (SLLTEVGSLLTEV; epitope peptide) [compound 320] | 1794 | 2530 | –
687 (SLLTEVETPCRNEWGCRCNDSSD; epitope peptide) [compound 687] | 724 | 2050 | –
239 (CSLLTEVETCEVETPIRNEWGSRSNC; epitope peptide) [compound 239] | 821 | 2549 | –
357 (SLLTEVETPIPNEWGCRCNDSSD; epitope peptide) [compound 357] | 1548 | 2515 | –
542 (MSLCTEVGMSLLTCV; epitope peptide) [compound 542] | 927 | – | 2722
354 (SLLTEVGCSLLTEV; epitope peptide) [compound 354] | 1555 | 2511 | –
707 (SLLTEVETPIANEWGCRCNDSSD; epitope peptide) [compound 707] | 708 | 2302 | –
386 (SLLTEVETPIRNEVGCRCNDSSD; epitope peptide) [compound 386] | 1371 | 2411 | –
677 (SLLTEVETPIQNEWGCRCNDSSD; epitope peptide) [compound 677] | 731 | 2372 | –
593 (SLLTEVEIPIRNEWGCRCNDSSD; epitope peptide) [compound 593] | 839 | 2365 | –
672 (SLLTEVETPIRNEWGRRCNDSSD; epitope peptide) [compound 672] | 735 | 2372 | –
446 (SLLTEVETPIRNEWGCRCND; epitope peptide) [compound 446] | 738 | – | 2276
517 (SLLTEVETPIRNEMGCRCNDSSD; epitope peptide) [compound 517] | 1020 | 2398 | –
585 (SLLTEVETPIRLEWGCRCNDSSD; epitope peptide) [compound 585] | 853 | 2468 | –
635 (SLLTEVEAPIRNEWGCRCNDSSD; epitope peptide) [compound 635] | 769 | 2325 | –
616 (SLLTEVETPIRNPWGCRCNDSSD; epitope peptide) [compound 616] | 808 | 2288 | –
584 (SLLTEVETPIRNEWGCRRNDSSD; epitope peptide) [compound 584] | 855 | 2383 | –
215 (CSLLTEVETCLTEVETPIRNEWGSRC; epitope peptide) [compound 215] | 958 | 2328 | –

Substance | Signal (peptides that bind to 23K21 and 8I10) (HuM2e antibody 23K12) | Signal (peptides that show specific binding to Z3G1) [1] | Signal (peptides that bind to Z3G1) [1]
598 (SLLTEVETPIRNEWGCRKNDSSD; epitope peptide) [compound 598] | 835 | 2435 | –
568 (SLLTEVETPIRNEWGCRCQDSSD; epitope peptide) [compound 568] | 877 | – | 2438
285 (MSLLTEVGMSLLTCV; epitope peptide) [compound 285] | 2389 | – | 2872
596 (SLLTEVETPIRNEWFCRCNDSSD; epitope peptide) [compound 596] | 837 | 2493 | –
694 (SLLTEVETPIRNEWGCRCNESSD; epitope peptide) [compound 694] | 720 | – | 2282
364 (CSLLTEVGCSLLTEV; epitope peptide) [compound 364] | 1499 | – | 2503
583 (SLLTEVWTPIRNEWGCRCNDSSD; epitope peptide) [compound 583] | 855 | 1889 | –
379 (SLCTEVGCSCLCEV; epitope peptide) [compound 379] | 1421 | 1500 | –
343 (MSLLTEVGMSLLTEC; epitope peptide) [compound 343] | 1630 | – | 2831
617 (SLLTEVETPIRNSWGCRCNDSSD; epitope peptide) [compound 617] | 807 | 2300 | –
454 (SLLTEVETPIMNEWGCRCNDSSD; epitope peptide) [compound 454] | 1308 | 2369 | –
546 (SLLTEVETPIRNRWGCRCNDSSD; epitope peptide) [compound 546] | 921 | 2257 | –
527 (SLLTEVEQPIRNEWGCRCNDSSD; epitope peptide) [compound 527] | 986 | 2344 | –
384 (SLLTEVETPIRNEYGCRCNDSSD; epitope peptide) [compound 384] | 1377 | 2426 | –
652 (SLLTEVEEPIRNEWGCRCNDSSD; epitope peptide) [compound 652] | 757 | 2362 | –
520 (VLLTEVETPIRNEWGCRCNDSSD; epitope peptide) [compound 520] | 1014 | 1758 | –
422 (SLLTEVETPIRNEWGCRCNDSFD; epitope peptide) [compound 422] | 947 | – | 2492
519 (SLLTEVETPIRNEWGCRSNDSSD; epitope peptide) [compound 519] | 1016 | 2344 | –
659 (SLLTEVETPIRNEWGARCNDSSD; epitope peptide) [compound 659] | 750 | 2396 | –
582 (SLLTEVETPIRAEWGCRCNDSSD; epitope peptide) [compound 582] | 856 | 2306 | –
662 (SLLTEVETPIRNFWGCRCNDSSD; epitope peptide) [compound 662] | 747 | 2417 | –
356 (SLLTEVETPIRNEWGCRCNDSDD; epitope peptide) [compound 356] | 1553 | – | 2181
562 (SLLTEVETPIRWEWGCRCNDSSD; epitope peptide) [compound 562] | 890 | 2302 | –
444 (SLLTEVETPIRNEWGCRC; epitope peptide) [compound 444] | 898 | – | 2478
